In this assay the target is T1, recombinant human plasminogen activator inhibitor-1 (PAI-1) (Homo sapiens, UniProt P05121).
T1 construct: purchased Molecular Innovations, Royal Oak, Mich
T1 sequence (P05121 24-402): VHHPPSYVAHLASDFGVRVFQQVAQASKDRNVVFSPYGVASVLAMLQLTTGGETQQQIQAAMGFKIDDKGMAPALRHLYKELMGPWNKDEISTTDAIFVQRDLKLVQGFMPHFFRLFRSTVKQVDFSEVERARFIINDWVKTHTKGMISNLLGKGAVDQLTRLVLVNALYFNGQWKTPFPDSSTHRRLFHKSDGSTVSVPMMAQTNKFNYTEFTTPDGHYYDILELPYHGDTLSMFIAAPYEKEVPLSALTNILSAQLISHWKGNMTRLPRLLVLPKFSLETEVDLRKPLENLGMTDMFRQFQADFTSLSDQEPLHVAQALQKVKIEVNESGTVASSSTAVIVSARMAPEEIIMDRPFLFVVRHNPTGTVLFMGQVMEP
The assay can be described thus: Screening for PAI-1 inhibition (residual tPA activity, Spectrozyme-tPA chromogenic substrate). It is filed as biochemical. As to conditions: test compound at 100 Um; pH 6.6 buffer, 140 nM PAI-1, 70 nM tPA. The method, then:
Screening for PAI-1 inhibition. Test compounds are dissolved in DMSO at a final concentration of 10 Mm, then diluted 100× in physiologic buffer. The inhibitory assay is initiated by the addition of the test compound (1-100 μM final concentration, maximum DMSO concentration of 0.2%) in a Ph 6.6 buffer containing 140 Nm recombinant human plasminogen activator inhibitor-1 (PAI-1; Molecular Innovations, Royal Oak, Mich.). Following a 1 hour incubation at room temperature, 70 Nm of recombinant human tissue plasminogen activator (Tpa) is added, and the combination of the test compound, PAI-1 and Tpa is incubated for an additional 30 minutes. Following the second incubation, Spectrozyme-Tpa (American Diagnostica, Greenwich, Conn.), a chromogenic substrate for Tpa, is added and absorbance read at 405 nm at 0 and 60 minutes. Relative PAI-1 inhibition is equal to the residual Tpa activity in the presence of the test compounds and PAI-1. Control treatments include the complete inhibition of Tpa by PAI-1 at the molar ratio employed (2:1), and the absence of any effect of the test compound on Tpa alone.
Turning to `CCn1cc(/C=N/OCC(=O)O)c2cc(OCc3cccc(Br)c3)ccc21` [Compound 14, {[((1E)-{5-[(3-bromobenzyl)oxy]-1-ethyl-1H-indol-3-yl}methylidene)amino]oxy}acetic acid], the inhibition – broadly, how much of the control response was suppressed – at 100 µM was 80%. To `CCn1cc(/C=N/OCC(=O)O)c2cc(OCc3cc(C(F)(F)F)cc(C(F)(F)F)c3)ccc21` [Compound 11, ({[(1E)-(5-{[3,5-bis(trifluoromethyl)benzyl]oxy}-1-ethyl-1H-indol-3-yl)methylidene]amino}oxy)acetic acid] belongs 71%; to `O=C(O)CO/N=C/c1cccc(C#CCOc2ccc(Br)cc2)c1` [Compound 169, {[((1E)-{3-[3-(4-bromophenoxy)prop-1-ynyl]phenyl}methylidene)amino]oxy}acetic acid], 60%. In the case of `CCn1cc(/C=N/OCC(=O)O)c2cc(OCc3ccc(C(C)(C)C)cc3)ccc21` [Compound 5, {[((1E)-{5-[(4-tert-butylbenzyl)oxy]-1-ethyl-1H-indol-3-yl}methylidene)amino]oxy}acetic acid], the inhibition at 100 µM came to 93%.

For `C=CCn1cc(/C=N/OCC(=O)O)c2cc(OCc3ccccc3)ccc21` [Compound 40, [({(1E)-[1-allyl-5-(benzyloxy)-1H-indol-3-yl]methylidene}amino)oxy]acetic acid], the inhibition at 100 µM is 50%. To `O=C(O)CO/N=C/c1cn(Cc2ccccc2)c2ccc(OCc3ccccc3Cl)cc12` [Compound 29, {[((1E)-{1-benzyl-5-[(2-chlorobenzyl)oxy]-1H-indol-3-yl}methylidene)amino]oxy}acetic acid] belongs 82%; to `C=CCn1cc(/C=N/OCC(=O)O)c2cc(OCc3ccc(C(F)(F)F)cc3)ccc21` [Compound 1, ({[(1E)-(1-allyl-5-{[4-(trifluoromethyl)benzyl]oxy}-1H-indol-3-yl)methylidene]amino}oxy)acetic acid], 86%; to `O=C(O)CO/N=C/c1ccc(-c2cccc(OCc3cccc(Br)c3)c2)cc1` [Compound 91, {[((1E)-{3′-[(3-bromobenzyl)oxy]-1,1′-biphenyl-4-yl}methylidene)amino]oxy}acetic acid], 77%. The same measure for `O=C(O)CO/N=C/c1cc(OCc2ccc(Br)cc2)cc(OCc2ccc(Br)cc2)c1` [Compound 145, {[((1E)-{3,5-bis[(4-bromobenzyl)oxy]phenyl}methylidene)amino]oxy}acetic acid]: 100%; for `Cc1cccc(COc2cc(/C=N/OCC(=O)O)cc(OCc3cccc(C)c3)c2)c1` [Compound 148, {[((1E)-{3,5-bis[(3-methylbenzyl)oxy]phenyl}methylidene)amino]oxy}acetic acid]: 88%; for `O=C(O)CO/N=C/c1cc(OCc2ccc(F)c(F)c2)cc(OCc2ccc(F)c(F)c2)c1` [Compound 151, {[((1E)-{3,5-bis[(3,4-difluorobenzyl)oxy]phenyl}methylidene)amino]oxy}acetic acid]: 88%. In the case of `O=C(O)CO/N=C/c1ccc(-c2ccc(OCc3c(Cl)cccc3Cl)cc2)cc1` [Compound 111, {[((1E)-{4′-[(2,6-dichlorobenzyl)oxy]-1,1′-biphenyl-4-yl}methylidene)amino]oxy}acetic acid], the inhibition at 100 µM was 38%.

On to `O=C(O)CO/N=C/c1ccc(OCc2ccc(F)cc2)cc1OCc1ccc(F)cc1` [Compound 123, {[((1E)-{2,4-bis[(4-fluorobenzyl)oxy]phenyl}methylidene)amino]oxy}acetic acid], for which the inhibition at 100 µM is 72%. The same measure for `CCn1cc(/C=N/OCC(=O)O)c2cc(OCc3cccc(C)c3)ccc21` [Compound 26, {[((1E)-{1-ethyl-5-[(3-methylbenzyl)oxy]-1H-indol-3-yl}methylidene)amino]oxy}acetic acid]: 26%; for `CCn1cc(/C=N/OCC(=O)O)c2cc(OCc3cccc(C(F)(F)F)c3)ccc21` [Compound 23, ({[(1E)-(1-ethyl-5-{[3-(trifluoromethyl)benzyl]oxy}-1H-indol-3-yl)methylidene]amino}oxy)acetic acid]: 56%; for `C#CCn1cc(/C=N/OCC(=O)O)c2cc(OCc3cccc(C(F)(F)F)c3)ccc21` [Compound 42, ({[(1E)-(1-(2-propynyl)-5-{[3-(trifluoromethyl)benzyl]oxy}-1H-indol-3-yl)methylidene]amino}oxy)acetic acid]: 96%. To `CCn1cc(/C=N/OCC(=O)O)c2cc(OCc3ccccc3Cl)ccc21` [Compound 28, {[((1E)-{5-[(2-chlorobenzyl)oxy]-1-ethyl-1H-indol-3-yl}methylidene)amino]oxy}acetic acid] belongs 70%; to `O=C(O)CO/N=C/c1cc(OCc2cccc(Br)c2)cc(OCc2cccc(Br)c2)c1` [Compound 147, {[((1E)-{3,5-bis[(3-bromobenzyl)oxy]phenyl}methylidene)amino]oxy}acetic acid], 87%; to `Cn1cc(/C=N/OCC(=O)O)c2cc(OCc3ccc(Cl)cc3)ccc21` [Compound 47, {[((1E)-{5-[(4-chlorobenzyl)oxy]-1-methyl-1H-indol-3-yl}methylidene)amino]oxy}acetic acid], 31%. To `O=C(O)CO/N=C/c1cc(OCc2cccc(Cl)c2)ccc1OCc1cccc(Cl)c1` [Compound 157, {[((1E)-{2,5-bis[(3-chlorobenzyl)oxy]phenyl}methylidene)amino]oxy}acetic acid] belongs 85%. Consider `O=C(O)CO/N=C/c1cn(Cc2ccccc2)c2ccc(OCc3cccc(Br)c3)cc12` [Compound 15, {[((1E)-{1-benzyl-5-[(3-bromobenzyl)oxy]-1H-indol-3-yl}methylidene)amino]oxy}acetic acid], for which the inhibition at 100 µM came to 71%. In the case of `O=C(O)CO/N=C/c1cccc(-c2cccc(OCc3ccc4ccccc4c3)c2)c1` [Compound 69, [({(1E)-[3′-(2-naphthylmethoxy)-1,1′-biphenyl-3-yl]methylidene}amino)oxy]acetic acid], the inhibition at 100 µM came to 53%. To `CCn1cc(/C=N/OCC(=O)O)c2cc(OCc3cccc(Cl)c3)ccc21` [Compound 17, {[((1E)-{5-[(3-chlorobenzyl)oxy]-1-ethyl-1H-indol-3-yl}methylidene)amino]oxy}acetic acid] belongs 68%; to `C#CCn1cc(/C=N/OCC(=O)O)c2cc(OCc3cc(C(F)(F)F)cc(C(F)(F)F)c3)ccc21` [Compound 35, [({(1E)-[5-{[3,5-bis(trifluoromethyl)benzyl]oxy}-1-(2-propynyl)-1H-indol-3-yl]methylidene}amino)oxy]acetic acid], 44%. For the molecule `CCn1cc(/C=N/OCC(=O)O)c2cc(OCc3ccc(C(F)(F)F)cc3)ccc21` [Compound 2, ({[(1E)-(1-ethyl-5-{[4-(trifluoromethyl)benzyl]oxy}-1H-indol-3-yl)methylidene]amino}oxy)acetic acid], the inhibition at 100 µM amounted to 83%. For `Cc1ccc(COc2ccc(/C=N/OCC(=O)O)cc2OCc2ccc(C)cc2)cc1` [Compound 120, {[((1E)-{3,4-bis[(4-methylbenzyl)oxy]phenyl}methylidene)amino]oxy}acetic acid], the inhibition at 100 µM was determined as 78%. To `C#CCn1cc(/C=N/OCC(=O)O)c2cc(OCc3ccc(C(F)(F)F)cc3)ccc21` [Compound 31, ({[(1E)-(1-(2-propynyl)-5-{[4-(trifluoromethyl)benzyl]oxy}-1H-indol-3-yl)methylidene]amino}oxy)acetic acid] belongs 90%. The same measure for `CC(C)(C)c1ccc(COc2ccc(OCc3ccc(C(C)(C)C)cc3)c(/C=N/OCC(=O)O)c2)cc1` [Compound 156, {[((1E)-{2,5-bis[(4-tert-butylbenzyl)oxy]phenyl}methylidene)amino]oxy}acetic acid]: 99%; for `O=C(O)CO/N=C/c1cn(Cc2ccccc2)c2ccc(OCc3ccc4ccccc4c3)cc12` [Compound 56, [({(1E)-[1-benzyl-5-(2-naphthylmethoxy)-1H-indol-3-yl]methylidene}amino)oxy]acetic acid]: 62%. To `Cc1ccc(COc2cccc(-c3cccc(/C=N/OCC(=O)O)c3)c2)cc1` [Compound 70, {[((1E)-{3′-[(4-methylbenzyl)oxy]-1,1′-biphenyl-3-yl}methylidene)amino]oxy}acetic acid] belongs 83%; to `Cc1ccc(COc2ccc3c(c2)c(/C=N/OCC(=O)O)cn3Cc2ccccc2)cc1` [Compound 21, {[((1E)-{1-benzyl-5-[(4-methylbenzyl)oxy]-1H-indol-3-yl}methylidene)amino]oxy}acetic acid], 80%; to `O=C(O)CO/N=C/c1ccc(OCc2cccc(Cl)c2)c(OCc2cccc(Cl)c2)c1` [Compound 116, {[((1E)-{3,4-bis[(3-chlorobenzyl)oxy]phenyl}methylidene)amino]oxy}acetic acid], 92%. On to `O=C(O)CO/N=C/c1ccc(-c2ccc(OCc3ccccc3Cl)cc2)cc1` [Compound 107, {[((1E)-{4′-[(2-chlorobenzyl)oxy]-1,1′-biphenyl-4-yl}methylidene)amino]oxy}acetic acid], for which the inhibition at 100 µM worked out at 30%. In the case of `Cc1cccc(COc2ccc3c(c2)c(/C=N/OCC(=O)O)cn3Cc2ccccc2)c1` [Compound 27, {[((1E)-{1-benzyl-5-[(3-methylbenzyl)oxy]-1H-indol-3-yl}methylidene)amino]oxy}acetic acid], the inhibition at 100 µM was 99%.

These data come from patent US7411083B2, “Substituted acetic acid derivatives” (Wyeth, priority 2003, dated 2008).
